Data as given in US11076595B2, “1-(n,n-disubstituted carbamoyl) 4-(substituted sulfonyl)triazolin-5-one derivative, 4-(n,n-disubstituted carbamoyl) 1-(substituted sulfonyl)triazolin-5-one derivative, and herbicide containing said derivative as active ingredient” (HOKKO CHEMICAL INDUSTRY CO., LTD., priority 2017, dated 2021).

Experiments:
Format in all cases: in vivo
Chenopodium album [1] = assay: Test Example 4: herbicidal effect test by foliage treatment in upland field; conditions: upland field foliage treatment 7 days after sowing; 120 g/10a; evaluated 14 days after treatment
Outline: (§1)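 Application of 120 g active ingredient per 10 are, as a water-diluted emulsifiable concentrate sprayed 7 days after sowing into alluvial soil. Effect is expressed as percent dry-weight reduction versus untreated plots at day 14, duplicate plots.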

Echinochloa crus-galli [2] = assay: as above; conditions: upland field foliage treatment 7 days after sowing; 120 g/10a; evaluated 14 days after treatment
Outline: as §1

crabgrass [3] = assay: as above; conditions: upland field foliage treatment 7 days after sowing; 120 g/10a; evaluated 14 days after treatment
Outline: as §1

Amaranthus viridis [4] = assay: as above; conditions: upland field foliage treatment 7 days after sowing; 120 g/10a; evaluated 14 days after treatment
Outline: as §1

Echinochloa crus-galli [5] = assay: Test Example 2: herbicidal effect test by treatment during growing period in paddy field; conditions: treatment 7 days after sowing, 120 g/10a, evaluated 14 days after treatment
Outline: (§2)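 Paddy soil in flooded pots (~3 cm water), 30 seeds per species sown 0–1 cm deep, greenhouse. Emulsifiable concentrate diluted in water and dripped into the water 7 days after sowing at 120 g a.i. per 10 are. Suppression (%) from dry weight vs untreated, 14 days post-treatment, two replicates.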

Lindernia pyxidaria [6] = assay: as above; conditions: treatment 7 days after sowing, 120 g/10a, evaluated 14 days after treatment
Outline: as §2

Monochoria vaginalis [7] = assay: as above; conditions: treatment 7 days after sowing, 120 g/10a, evaluated 14 days after treatment
Outline: as §2

Scirpus juncoides [8] = assay: as above; conditions: treatment 7 days after sowing, 120 g/10a, evaluated 14 days after treatment
Outline: as §2

Chenopodium album [9] = assay: Test Example 3: herbicidal effect test by soil treatment in upland field; conditions: upland field soil treatment 1 day after sowing; 120 g/10a; evaluated 14 days after treatment
Method: (§3) This test was performed with two replications per one formulation concentration plot, and 14 days after the formulation treatments, the weed suppression rate (%) was determined according to the following equation (Math. 1). Weed suppression rate (%)=(1−an average dry weight (g) of plants in treated plots/an average dry weight (g) of plants in untreated plots)×100 [Math. 1]
(§4) A pot having a size of 36 cm^2 was filled with field soil (alluvial soil) and after uniformly mixing the soil of the surface layer of 1 cm with 20 grains of each weed seed of crabgrass, Echinochloa crus-galli, Chenopodium album and Amaranthus viridis, the surface layer was pressed lightly. One day after the sowing, an emulsifiable concentrate prepared according to Formulation Example 5 by using the compound shown in Table 7 below was diluted with water, and the water-diluted formulation was sprayed on the soil surface at a ratio of 100 liter per 10 are. The application rate of the active ingredient, by conversion, corresponded to 120 g per 10 are. Fourteen days after the formulation treatment, the herbicidal effect was evaluated by the same criteria as in Test Example 1.

Echinochloa crus-galli [10] = assay: as above; conditions: upland field soil treatment 1 day after sowing; 120 g/10a; evaluated 14 days after treatment
Method: as §3, §4

crabgrass [11] = assay: as above; conditions: upland field soil treatment 1 day after sowing; 120 g/10a; evaluated 14 days after treatment
Method: as §3, §4

Amaranthus viridis [12] = assay: as above; conditions: upland field soil treatment 1 day after sowing; 120 g/10a; evaluated 14 days after treatment
Method: as §3, §4

Echinochloa crus-galli [13] = assay: Test Example 1: herbicidal effect test by soil treatment in paddy field; conditions: 120 g/10a, paddy soil treatment just after sowing, 14 days after treatment
Outline: (§5)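 Emulsifiable-concentrate formulation, water-diluted, dosed onto flooded paddy pots at 120 g a.i./10 are directly after sowing. Readout: % suppression by dry weight relative to untreated, 14 d, duplicate plots.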

Lindernia pyxidaria [14] = assay: as above; conditions: 120 g/10a, paddy soil treatment just after sowing, 14 days after treatment
Outline: as §5

Monochoria vaginalis [15] = assay: as above; conditions: 120 g/10a, paddy soil treatment just after sowing, 14 days after treatment
Outline: as §5

Scirpus juncoides [16] = assay: as above; conditions: 120 g/10a, paddy soil treatment just after sowing, 14 days after treatment
Outline: as §5

SMILES | herbicidal effect (weed suppression rate), Chenopodium album (Chenopodium album [1]) [%] | herbicidal effect (weed suppression rate), Echinochloa crus-galli (Echinochloa crus-galli [2]) [%] | herbicidal effect (weed suppression rate), Crabgrass (crabgrass [3]) [%] | herbicidal effect (weed suppression rate), Amaranthus viridis (Amaranthus viridis [4]) [%] | weed suppression rate, Echinochloa crus-galli (Echinochloa crus-galli [5]) [%] | weed suppression rate, Lindemia pyxidaria (Lindernia pyxidaria [6]) [%] | weed suppression rate, Monochoria vaginalis (Monochoria vaginalis [7]) [%] | weed suppression rate, Scirpus juncoides (Scirpus juncoides [8]) [%] | herbicidal effect (weed suppression rate), Chenopodium album (Chenopodium album [9]) [%] | herbicidal effect (weed suppression rate), Echinochloa crus-galli (Echinochloa crus-galli [10]) [%] | herbicidal effect (weed suppression rate), Crabgrass (crabgrass [11]) [%] | herbicidal effect (weed suppression rate), Amaranthus viridis (Amaranthus viridis [12]) [%] | weed suppression rate, Echinochloa crus-galli (Echinochloa crus-galli [13]) [%] | weed suppression rate, Lindemia pyxidaria (Lindernia pyxidaria [14]) [%] | weed suppression rate, Monochoria vaginalis (Monochoria vaginalis [15]) [%] | weed suppression rate, Scirpus juncoides (Scirpus juncoides [16]) [%]
Cc1ccc(N(C(=O)n2ncn(S(=O)(=O)C(C)C)c2=O)C(C)C)c(F)c1 [Compound 1-79] | 80 | 80 | 90 | 90 | 90 | 80 | 80 | 90 | 80 | 80 | 90 | 90 | 90 | 80 | 80 | 90
CC(C)N(C(=O)n1ncn(S(=O)(=O)C2CCCCC2)c1=O)c1ccc(F)cc1 [Compound 1-298] | 80 | 80 | 90 | 90 | 90 | 90 | 90 | 90 | 80 | 80 | 90 | 90 | 90 | 90 | 80 | 90
CC(C)N(C(=O)n1ncn(S(=O)(=O)C2CC2)c1=O)c1ccc(F)c(F)c1F [Compound 1-203] | 80 | 100 | 100 | 100 | 100 | 80 | 100 | 100 | 60 | 80 | 80 | 90 | 100 | 100 | 90 | 100
CC(C)N(C(=O)n1ncn(S(=O)(=O)C2CCCCC2)c1=O)c1cccc(F)c1F [Compound 1-305] | 80 | 90 | 100 | 80 | 100 | 100 | 100 | 100 | 80 | 100 | 100 | 80 | 100 | 100 | 100 | 100
CC(C)N(C(=O)n1ncn(S(=O)(=O)C(C)C)c1=O)c1ccc(Cl)nc1Cl [Compound 1-98] | 80 | 80 | 90 | 90 | 100 | 80 | 90 | 90 | 80 | 80 | 90 | 90 | 100 | 90 | 90 | 90
Cc1ccc(N(C(=O)n2ncn(S(=O)(=O)N(C)C)c2=O)C(C)C)c(F)c1 [Compound 1-1117] | 80 | 80 | 90 | 90 | 90 | 80 | 80 | 90 | 80 | 80 | 90 | 90 | 90 | 80 | 80 | 90
CC(C)N(C(=O)n1ncn(S(=O)(=O)C2CCCCC2)c1=O)c1ccc(Cl)cc1Br [Compound 1-318] | 60 | 80 | 80 | 60 | 100 | 80 | 80 | 80 | 50 | 100 | 100 | 50 | 100 | 90 | 90 | 100
CC(C)N(C(=O)n1ncn(S(=O)(=O)C2CCC2)c1=O)c1ccc(F)cc1F [Compound 1-269] | 80 | 80 | 90 | 90 | 100 | 100 | 90 | 90 | 90 | 90 | 90 | 90 | 100 | 100 | 100 | 90
Cc1cc(C)c(S(=O)(=O)n2cnn(C(=O)N(c3ccc(F)c(F)c3F)C(C)C)c2=O)c(C)c1 [Compound 1-899] | 80 | 100 | 100 | 100 | 100 | 80 | 100 | 100 | 60 | 80 | 80 | 90 | 100 | 100 | 90 | 100
